Measurements reported in patent US7335665B2, “Spirocyclic piperidines as MCH1 antagonists and uses thereof” (H - Lundbeck A/S, priority 2003, dated 2008).
pKi: −log10 of the molar value.

Target: T1, rat MCH1 receptor (Rattus norvegicus, UniProt P97639)
T1 construct: expressed in transfected cells; host or cells: Human embryonic kidney Peak rapid 293 cells (Peakr293), transient, calcium phosphate; membranes
Experiment: Radioligand binding assay at cloned rat MCH1 receptor ([3H]Compound A displacement)
Settings: KI, cloned rat MCH1, membranes of transfected Peakr293 cells, 0.08 nM [3H]Compound A, 25° C., 90 minutes
Method: For binding assays, pellets of transfected cells are suspended in ice-cold buffer (20 mM Tris.HCl, 5 mM EDTA, pH 7.4) and homogenized by sonication for 7 sec. The cell lysates are centrifuged at 200×g for 5 min at 4° C. The supernatants are then centrifuged at 40,000×g for 20 min at 4° C. The resulting pellets are washed once in the homogenization buffer and suspended in binding buffer (see methods for radioligand binding). Protein concentrations are determined by the method of Bradford (1976) using bovine serum albumin as the standard. Binding assays are usually performed immediately, however it is possible to prepare membranes in batch and store frozen in liquid nitrogen for future use.
Radioligand binding assays for the rat MCH1 receptor were carried out using plasmid pcDNA3.1-rMCH1-f (ATCC Patent Deposit Designation No. PTA-3505). Plasmid pcDNA3.1-rMCH1-f comprises the regulatory elements necessary for expression of DNA in a mammalian cell operatively linked to DNA encoding the rat MCH1 receptor so as to permit expression thereof. Plasmid pcDNA3.1-rMCH1-f was deposited on Jul. 5, 2001, with the American Type Culture Collection (ATCC), 12301 Parklawn Drive, Rockville, Md. 20852, U.S.A. under the provisions of the Budapest Treaty for the International Recognition of the Deposit of Microorganisms for the Purposes of Patent Procedure and was accorded ATCC Patent Deposit Designation No. PTA-3505.
Human embryonic kidney Peak rapid 293 cells (Peakr293 cells) were transiently transfected with DNA encoding the MCH1 receptor utilizing the calcium phosphate method and cell membranes were prepared as described above. Binding experiments with membranes from Peakr293 cells transfected with the rat MCH1 receptor were performed with 0.08 nM [^3H]Compound A (custom labeled by Amersham) (the synthesis of Compound A is described in detail below) using an incubation buffer consisting of 50 mM Tris pH 7.4, 10 mM MgCl2, 0.16 mM PMSF, 1 mM 1,10 phenantroline and 0.2% BSA. Binding was performed at 25° C. for 90 minutes. Incubations were terminated by rapid vacuum filtration over GF/C glass fiber filters, presoaked in 5% PEI using […] Tris pH 7.4 as wash buffer. In all experiments, nonspecific binding is defined using […] Compound A.
The compounds described above were assayed using cloned rat MCH1.

T1 sequence (P97639 whole entry): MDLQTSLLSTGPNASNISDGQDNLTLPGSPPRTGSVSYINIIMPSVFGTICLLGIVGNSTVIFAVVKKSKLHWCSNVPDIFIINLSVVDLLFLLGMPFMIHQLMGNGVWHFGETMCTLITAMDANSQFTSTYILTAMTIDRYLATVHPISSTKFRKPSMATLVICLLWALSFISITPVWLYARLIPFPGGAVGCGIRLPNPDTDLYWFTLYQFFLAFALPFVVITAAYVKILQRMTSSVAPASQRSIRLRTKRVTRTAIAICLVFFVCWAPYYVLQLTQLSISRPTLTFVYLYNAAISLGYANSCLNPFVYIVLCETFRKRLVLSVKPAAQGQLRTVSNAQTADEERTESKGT

Structure (SMILES) | pKi
O=C1c2ccccc2C(=O)N1CCCCN1CCC2(C=Cc3ccccc32)CC1 [Example 1, 2-(4-(-(SPIRO[INDENE-1,4′-PIPERIDINE]-10-YL)BUTYL)BENZO[C]AZOLINE-1,3-DIONE] | 6.09
O=C(NCCCCCN1CCC2(CCc3ccccc32)CC1)C(c1ccccc1)c1ccccc1 [Example 3, 2,2-DIPHENYL-N-(5-(SPIRO[INDANE-1,4′-PIPERIDINE]-10-YL)PENTYL)ACETAMIDE] | 6.42
O=C(NCCCCCCN1CCC2(CCc3ccccc32)CC1)C(c1ccccc1)c1ccccc1 [Example 5, 2,2-DIPHENYL-N-(6-(SPIRO[INDANE-1,4′-PIPERIDINE]-10-Y)LHEXYL)ACETAMIDE] | 6.14
O=C(Cc1ccc(F)cc1)NCCCCN1CCC2(CCc3ccccc32)CC1 [Example 9, 2-(4-FLUOROPHENYL)-N-(4-(SPIRO[INDANE-1,4′-PIPERIDINE]-10-YL)BUTYL)ACETAMIDE] | 6.16
CCCc1nn(-c2ccc(Cl)cc2)cc1C(=O)NCCCCCCN1CCC2(CCc3ccccc32)CC1 [Example 10, [1-(4-CHLOROPHENYL)-3-PROPYL)PYRAZOL-4-YL]-N-(6-(SPIRO[INDANE-1,4′-PIPERIDINE]-10-YL)HEXYL)CARBOXAMIDE] | 6.12
O=C(NCCCCCCN1CCC2(CCc3ccccc32)CC1)c1cc(F)cc(F)c1 [Example 14] | 6.07
O=C(NCCCCN1CCC2(CCc3ccccc32)CC1)c1ccc(Oc2cc(Cl)cc(Cl)c2)o1 [Example 15, [5-(3,5-dichlorophenoxy)(2-furyl)]-N-(4-(SPIRO[indane-1,4′-piperidine]-10-YL)BUTYL)carboxamide] | 6.36
O=C(NCCCCCCN1CCC2(CCc3ccccc32)CC1)c1ccc(Oc2cc(Cl)cc(Cl)c2)o1 [Example 16, [5-(3,5-DICHLOROPHENOXY)(2-FURYL)]-N-(6-(SPIRO[INDANE-1,4′-PIPERIDINE]-10-YL)HEXYL)CARBOXAMIDE] | 6.35
O=C(NCCCN1CCC2(CCc3ccccc32)CC1)c1ccc(Oc2cc(Cl)cc(Cl)c2)o1 [Example 17, [5-(3,5-DICHLOROPHENOXY)(2-FURYL)]-N-(3-(SPIRO[INDANE-1,4′-PIPERIDINE]-10-YL)PROPYL)CARBOXAMIDE] | 6.03
O=C(NCCCCCCN1CCC2(CCc3ccccc32)CC1)c1ccc(F)c(F)c1 [Example 19, (3,4-DIFLUOROPHENYL)-N-(6-(SPIRO[INDANE-1,4′-PIPERIDINE]-10-YL)HEXYL)CARBOXAMIDE] | 6.38
CC(C)(C)c1cc(C(=O)NCCCCCCN2CCC3(CCc4ccccc43)CC2)n(Cc2ccccc2)n1 [Example 20, [3-(TERT-BUTYL)-1-BENZYL)PYRAZOL-5-YL]-N-(6-(SPIRO[INDANE-1,4′-PIPERIDINE]-10-YL)HEXYL)CARBOXAMIDE] | 6.29
S=C(NCCCCCN1CCC2(CCc3ccccc32)CC1)Nc1cccc2ccccc12 [Example 22, (NAPHTHYLAMINO)[(5-(SPIRO[INDANE-1,4′-PIPERIDINE]-10-YL)PENTYL)AMINO]METHANE-1-THIONE] | 6.29
S=C(NCCCCN1CCC2(CCc3ccccc32)CC1)Nc1cccc2ccccc12 [Example 23, (NAPHTHYLAMINO)[(4-(SPIRO[INDANE-1,4′-PIPERIDINE]-10-YL-BUTYL)AMINO]METHANE-1-THIONE] | 6.09
S=C(NCCCCCCN1CCC2(CCc3ccccc32)CC1)Nc1cccc2ccccc12 [Example 24, (NAPHTHYLAMINO)[(6-SPIRO[INDANE-1,4′-PIPERIDINE]-10-YLHEXYL)AMINO]METHANE-1-THIONE] | 6.18
O=C(NCCCCN1CCC2(CCc3ccccc32)CC1)Nc1cc(Cl)cc(Cl)c1 [Example 26, N-(3,5-DICHLOROPHENYL)[(4-SPIRO[INDANE-1,4′-PIPERIDINE]-10-YLBUTYL)AMINO]CARBOXAMIDE] | 6.29
O=C(NCCCCN1CCC2(CCc3ccccc32)CC1)c1sc2ccccc2c1Cl [Example 34, (3-CHLOROBENZO[B]THIOPHEN-2-YL)-N-(4-(SPIRO[INDANE-1,4′-PIPERIDINE]-10-YL)BUTYL)CARBOXAMIDE] | 6.05

Same assay, conditions: cloned rat MCH1, membranes of transfected Peakr293 cells, 0.08 nM [3H]Compound A, 25° C., 90 minutes; read-out: KI

Structure (SMILES) | pKi
O=C(NCCCCCCN1CCC2(CCc3ccccc32)CC1)c1ccc(-c2ccccc2)cc1 [Example 2, (4-PHENYL)PHENYL)-N-(6-(SPIRO[INDANE-1,4′-PIPERIDINE]-10-YL)HEXYL)CARBOXAMIDE] | 6.01
O=C(NCCCCN1CCC2(CCc3ccccc32)CC1)C(c1ccccc1)c1ccccc1 [Example 4, 2,2-DIPHENYL-N-(4-(SPIRO[INDANE-1,4′-PIPERIDINE]-10-YL)BUTYL)ACETAMIDE] | 6.67
O=C(NCCCN1CCC2(CCc3ccccc32)CC1)C(c1ccccc1)c1ccccc1 [Example 6, 2,2-DIPHENYL-N-(3-(SPIRO[INDANE-1,4′-PIPERIDINE]-10-YL)PROPYL)ACETAMIDE] | 7.47
O=C(NCCCCN1CCC2(CCc3ccccc32)CC1)c1cc(Cl)cc(Cl)c1 [Example 7, (3,5-DICHLOROPHENYL)-N-[(4-(SPIRO[INDANE-1,4′-PIPERIDINE]-10-YL)BUTYL)AMINO]CARBOXAMIDE] | 6.57
O=C(NCCCN1CCC2(CCc3ccccc32)CC1)c1cc(Cl)cc(Cl)c1 [Example 8, (3,5-DICHLOROPHENYL)-N-(3-(SPIRO[INDANE-1,4′-PIPERIDINE]-10-YL)PROPYL)CARBOXAMIDE] | 6.04
Cc1onc(-c2c(F)cccc2Cl)c1C(=O)NCCCCCCN1CCC2(CCc3ccccc32)CC1 [Example 12, [3-(2-CHLORO-6-FLUOROPHENYL)-5-METHYLISOXAZOL-4-YL]-N-(6-(SPIRO[INDANE-1,4′-PIPERIDINE]-10-YL)HEXYL)CARBOXAMIDE] | 6.18
O=C(NCCCCN1CCC2(CCc3ccccc32)CC1)c1cc(F)cc(F)c1 [Example 13, (3,5-DIFLUOROPHENYL)-N-(4-(SPIRO[INDANE-1,4′-PIPERIDINE]-10-YL)BUTYL)CARBOXAMIDE] | 6.57
O=C(NCCCCN1CCC2(CCc3ccccc32)CC1)c1cccc(Cl)c1 [Example 18, (3-CHLOROPHENYL)-N-(4-(SPIRO[INDANE-1,4′-PIPERIDINE]-10-YL)BUTYL)CARBOXAMIDE] | 6.47
O=S(=O)(NCCCCCN1CCC2(CCc3ccccc32)CC1)c1cccc(C(F)(F)F)c1 [Example 21, (5-(SPIRO[INDANE-1,4′-PIPERIDINE]-10-YL)PENTYL){[3-(TRIFLUORO-METHYL)PHENYL]SULFONYL}AMINE] | 6.00
O=C(NCCCCCN1CCC2(CCc3ccccc32)CC1)Nc1cc(Cl)cc(Cl)c1 [Example 25, N-(3,5-DICHLOROPHENYL)[(5-(SPIRO[INDANE-1,4′-PIPERIDINE]-10-YL)PENTYL)AMINO]CARBOXAMIDE] | 6.27
O=C(NCCCCCN1CCC2(CCc3ccccc32)CC1)Nc1ccc(-c2ccccc2)cc1 [Example 27, N-(4-PHENYL)PHENYL)[(5-(SPIRO[INDANE-1,4′-PIPERIDINE]-10-YL)PENTYL)AMINO]CARBOXAMIDE] | 6.18
O=C(NCCCCN1CCC2(CCc3ccccc32)CC1)Nc1ccc(-c2ccccc2)cc1 [Example 28, N-(4-PHENYL)PHENYL)[(4-(SPIRO[INDANE-1,4′-PIPERIDINE]-10-YL)BUTYL)AMINO]CARBOXAMIDE] | 6.26
O=C(NCCCCCCN1CCC2(CCc3ccccc32)CC1)c1ccc(-c2ccccc2)cc1 [Example 29, (4-PHENYL)PHENYL)-N-(6-(SPIRO[INDANE-1,4′-PIPERIDINE]-10-YL)HEXYL)CARBOXAMIDE] | 6.37
O=C(NCCCCCN1CCC2(CCc3ccccc32)CC1)c1cccnc1Oc1ccc(Cl)cc1 [Example 31, [2-(4-CHLOROPHENOXY)(3-PYRIDYL)]-N-(5-(SPIRO[INDANE-1,4′-PIPERIDINE]-10-YL)PENTYL)CARBOXAMIDE] | 6.67
O=C(NCCCCN1CCC2(CCc3ccccc32)CC1)c1cccnc1Oc1ccc(Cl)cc1 [Example 32, [2-(4-CHLOROPHENOXY)(3-PYRIDYL)]-N-(4-(SPIRO[INDANE-1,4′-PIPERIDINE]-10-YL)BUTYL)CARBOXAMIDE] | 6.41
O=C(NCCCCCCN1CCC2(CCc3ccccc32)CC1)c1cccnc1Oc1ccc(Cl)cc1 [Example 33, [2-(4-CHLOROPHENOXY)(3-PYRIDYL)]-N-(6-(SPIRO[INDANE-1,4′-PIPERIDINE]-10-YL)HEXYL)CARBOXAMIDE] | 6.37
Cc1onc(-c2ccccc2Cl)c1C(=O)NCCCCN1CCC2(CCc3ccccc32)CC1 [Example 35, [3-(2-CHLOROPHENYL)-5-METHYLISOXAZOL-4-YL]-N-(4-(SPIRO[INDANE-1,4′-PIPERIDINE]-10-YL)BUTYL)CARBOXAMIDE] | 6.08
O=C(NCCCCCN1CCC2(C=Cc3ccccc32)CC1)c1sc2ccccc2c1Cl [Example 36, (3-CHLOROBENZO[B]THIOPHEN-2-YL)-N-(5-(SPIRO[INDENE-1,4′-PIPERIDINE]-10-YL)PENTYL)CARBOXAMIDE] | 6.13
